Where two headings read alike, the source gives them in different places.
Tested on: MDD patients carrying the indicated conditions
Details: Phase I, with SSRI
Procedure: Folate levels are classified as either low (<=2.5 ng/ml) or normal; and homocysteine levels as either normal or elevated (>=[…]). The presence or absence of at least one […] allele for the MTHFR gene are entered as a dichotomous variable (present or absent). […] Using folate as an example predicator, the presence or absence of a low serum-folate level along with treatment assignment can be entered in a 2×2, factorial ANOVA, using depression improvement scores (baseline minus endpoint HAM-D-17 scores) as the dependant variable. […] Similar analyses (i.e. separate 2×2 ANOVA's) can be performed substituting the presence of low folate levels for the presence of other predictors as described herein. Similarly, the effect of other predictors can be indicated by the interaction term representing the potential modulating influence of those variables.
Particularly, specific genetic and biomarkers that were assessed include the following: • (a) BMI calculation of at least about 30 kg/m^2; • (b) an expression ratio of SAM/SAH smaller than 2.8 (e.g., 2.71) as measured in a plasma sample; • (c) a level of 4-HNE no less than 3.28 μg/mL (as measured in a plasma sample); • (d) presence of rare variants CT or TT at position 677 of SEQ ID NO: 1 corresponding to a portion of a genomic nucleic acid sequence of methylenetetrahydrofolate reductase (MTHFR) (abbreviated as “MTHFR 677” below); • (e) presence of rare variants AG or GG at position 2756 of SEQ ID NO: 2 corresponding to a portion of genomic nucleic acid sequence of methionine synthase (MTR) (abbreviated as “MTR 2756” below); and • (f) presence of rare variants AG or GG at position 66 of SEQ ID NO: 3 corresponding to a portion of genomic nucleic acid sequence of methionine synthase reductase (MTRR) (abbreviated as “MTRR 66” below).
The efficacy effect is determined by measuring the mean change in the HAMD-17 score and HAMD-28 score by the end of Phase I and Phase II, as compared to the baseline.

CN1c2c(nc(N)[nH]c2=O)NC[C@@H]1CNc1ccc(C(=O)N[C@@H](CCC(=O)O)C(=O)O)cc1 [6(S)-5-MTHF, 6(S)-5-methyltetrahydrofolate] was tested, and the “Effect, change in HAMD-17 score” value (25 =< BMI < 30 kg/m^2 (18, 10)) was 2.600, the “Effect, change in HAMD-28 score” value (25 =< BMI < 30 kg/m^2 (18, 10)) was 2.602 and the “Effect, change in HAMD-17 score” value (BMI < 25 (14, 7)) was 1.576. The “Effect, change in HAMD-28 score” value (BMI < 25 (14, 7)) was 0.909, the “Effect, change in HAMD-17 score” value (BMI < 30 kg/m^2 and HNE-His < median (19, 9)) was 3.771 and the “Effect, change in HAMD-28 score” value (BMI < 30 kg/m^2 and HNE-His < median) was 4.606. For the same compound, the “Effect, change in HAMD-17 score” value (BMI < 30 kg/m^2 and SAM/SAH >= median (16,8)) was 4.333, the “Effect, change in HAMD-28 score” value (BMI < 30 kg/m^2 and SAM/SAH >= median) was 4.333 and the “Effect, change in HAMD-17 score” value (BMI >= 30 kg/m^2 (40,21)) was −6.414. The “Effect, change in HAMD-28 score” value (BMI >= 30 kg/m^2 (40,21)) was −6.677, the “Effect, change in HAMD-17 score” value (BMI >= 30 kg/m^2 and HNE-His >= median (23, 11)) was −6.569 and the “Effect, change in HAMD-28 score” value (BMI >= 30 kg/m^2 and HNE-His >= median) was −6.510. For the same compound, the “Effect, change in HAMD-17 score” value (BMI >= 30 kg/m^2 and SAM/SAH < median (21,9)) was −5.611, the “Effect, change in HAMD-28 score” value (BMI >= 30 kg/m^2 and SAM/SAH < median = 2.71 (plasma sample)) was −6.306 and the “Effect, change in HAMD-17 score” value (MTHFR 677 CC and BMI < 30 kg/m^2 (17,8)) was 4.500. For the same compound, the “Effect, change in HAMD-28 score” value (MTHFR 677 CC and BMI < 30 kg/m^2) was 2.769, the “Effect, change in HAMD-17 score” value (MTHFR 677 CC and HNE-His < median (20,11)) was −1.471 and the “Effect, change in HAMD-28 score” value (MTHFR 677 CC and HNE-His < median = 3.28 (plasma sample)) was −2.821. For the same compound, the “Effect, change in HAMD-17 score” value (MTHFR 677 CC and MTR 2756 AA (29,13)) was −0.700, the “Effect, change in HAMD-28 score” value (MTHFR 677 CC and MTR 2756 AA) was −0.192 and the “Effect, change in HAMD-17 score” value (MTHFR 677 CT or TT and BMI >= 30 kg/m^2 (13,6)) was −8.738. For the same compound, the “Effect, change in HAMD-28 score” value (MTHFR 677 CT or TT and BMI >= 30 kg/m^2) was −9.857, the “Effect, change in HAMD-17 score” value (MTHFR 677 CT or TT and HNE-His >= median (11,6)) was −7.143 and the “Effect, change in HAMD-28 score” value (MTHFR 677 CT or TT and HNE-His >= median) was −6.929. The “Effect, change in HAMD-17 score” value (MTHFR 677 CT or TT and MTR 2756 AG or GG (8,4)) was −13.47, the “Effect, change in HAMD-28 score” value (MTHFR 677 CT or TT and MTR 2756 AG or GG) was −18.00 and the “Effect, change in HAMD-17 score” value (MTR 2756 AA (45,21)) was −0.621. For the same compound, the “Effect, change in HAMD-17 score” value (MTR 2756 AA and BMI < 30 kg/m^2 (17,7)) was 4.476, the “Effect, change in HAMD-28 score” value (MTR 2756 AA and BMI < 30 kg/m^2) was 5.524 and the “Effect, change in HAMD-17 score” value (MTR 2756 AA and HNE-His < median (26,13)) was 0.306. The “Effect, change in HAMD-28 score” value (MTR 2756 AA and HNE-His < median) was 0.639, the “Effect, change in HAMD-17 score” value (MTR 2756 AA and MTRR 66 AA (11,5)) was 3.125 and the “Effect, change in HAMD-17 score” value (MTR 2756 AA and MTRR 66 AA and HNE-His < median (6,4)) was 3.000. For the same compound, the “Effect, change in HAMD-28 score” value (MTR 2756 AA and MTRR 66 AA and HNE-His < median = 3.28 (plasma sample)) was 4.200, the “Effect, change in HAMD-17 score” value (MTR 2756 AA and MTRR 66 AA and SAM/SAH >= median (6,3)) was −0.400 and the “Effect, change in HAMD-28 score” value (MTR 2756 AA and MTRR 66 AA and SAM/SAH >= median) was −1.000. The “Effect, change in HAMD-28 score” value (MTR 2756 AA and MTRR 66 AA) was 5.000, the “Effect, change in HAMD-17 score” value (MTR 2756 AA and SAM/SAH >= median (24,12)) was −1.556 and the “Effect, change in HAMD-28 score” value (MTR 2756 AA and SAM/SAH >= median) was −1.278. The “Effect, change in HAMD-28 score” value (MTR 2756 AA) was 0.409, the “Effect, change in HAMD-17 score” value (MTR 2756 AG or GG and BMI >= 30 kg/m^2 (10,5)) was −12.905 and the “Effect, change in HAMD-28 score” value (MTR 2756 AG or GG and BMI >= 30 kg/m^2) was −18.762. For the same compound, the “Effect, change in HAMD-17 score” value (MTR 2756 AG or GG and HNE-His >= median (13,7)) was −7.125, the “Effect, change in HAMD-28 score” value (MTR 2756 AG or GG and HNE-His >= median = 3.28 (plasma sample)) was −9.950 and the “Effect, change in HAMD-17 score” value (MTR 2756 AG or GG and MTRR 66 AG or GG (15,7)) was −6.900. The “Effect, change in HAMD-17 score” value (MTR 2756 AG or GG and MTRR 66 AG or GG and BMI >= 30 kg/m^2 (8,4)) was −13.667, the “Effect, change in HAMD-28 score” value (MTR 2756 AG or GG and MTRR 66 AG or GG and BMI >= 30 kg/m^2) was −18.833 and the “Effect, change in HAMD-17 score” value (MTR 2756 AG or GG and MTRR 66 AG or GG and HNE-His >= median (10,4)) was −7.200. The “Effect, change in HAMD-28 score” value (MTR 2756 AG or GG and MTRR 66 AG or GG and HNE-His >= median) was −9.800, the “Effect, change in HAMD-17 score” value (MTR 2756 AG or GG and MTRR 66 AG or GG and SAM/SAH < median (8,3)) was −9.000 and the “Effect, change in HAMD-28 score” value (MTR 2756 AG or GG and MTRR 66 AG or GG and SAM/SAH < median = 2.71 (plasma sample)) was −12.741. The “Effect, change in HAMD-28 score” value (MTR 2756 AG or GG and MTRR 66 AG or GG) was −9.996, the “Effect, change in HAMD-17 score” value (MTR 2756 AG or GG and SAM/SAH < median (10,4)) was −9.800 and the “Effect, change in HAMD-28 score” value (MTR 2756 AG or GG and SAM/SAH < median = 2.71 (plasma sample)) was −14.993. For the same compound, the “Effect, change in HAMD-17 score” value (MTR 2756 AG/GG (20,11)) was −7.143 and the “Effect, change in HAMD-28 score” value (MTR 2756 AG/GG) was −10.926.

Source: patent US9540691B2, “Assays and methods for selecting a treatment regimen for a subject with depression” (THE GENERAL HOSPITAL CORPORATION, priority 2011, dated 2017)
